Assay results taken from the CheMixHub drug solubility set.

Assay: xn = mol fraction of the nth substance listed, in the solute-free solvent

O=C1CCC(C(=O)N2CSCC2C(=O)O)N1 (stereo not given) + CO + CCCCOC(C)=O
solubility (g/100 g solution)
Details | 278.15 K | 283.15 K | 288.15 K | 293.15 K | 298.15 K | 303.15 K | 308.15 K | 313.15 K | 318.15 K | 323.15 K
x2 = 0.2871 | 0.0109 | 0.0159 | 0.0239 | 0.0358 | 0.0528 | 0.0759 | 0.105 | 0.152 | 0.213 | 0.292
x2 = 0.4754 | 0.017 | 0.025 | 0.0349 | 0.0468 | 0.0628 | 0.0977 | 0.147 | 0.219 | 0.325 | 0.472
x2 = 0.6084 | 0.0271 | 0.0398 | 0.0597 | 0.0838 | 0.122 | 0.155 | 0.227 | 0.342 | 0.501 | 0.724
x2 = 0.7073 | 0.0401 | 0.065 | 0.104 | 0.162 | 0.249 | 0.378 | 0.564 | 0.832 | 1.2 | 1.68
x2 = 0.7838 | 0.0447 | 0.0729 | 0.117 | 0.184 | 0.287 | 0.432 | 0.65 | 0.964 | 1.4 | 1.95
x2 = 0.8446 | 0.0601 | 0.0995 | 0.148 | 0.234 | 0.363 | 0.542 | 0.949 | 1.23 | 1.59 | 2.33
x2 = 0.8943 | 0.635 | 0.752 | 0.898 | 0.997 | 1.19 | 1.36 | 1.59 | 1.88 | 2.15 | 2.57
x2 = 0.9355 | 0.674 | 0.824 | 0.969 | 1.11 | 1.26 | 1.5 | 1.8 | 2.04 | 2.4 | 2.85
x2 = 0.9703 | 0.793 | 0.937 | 1.12 | 1.28 | 1.52 | 1.75 | 2.06 | 2.36 | 2.82 | 3.31
